In patent US20230348376A1 (TEIJIN PHARMA LIMITED, priority 2020, published 2023):

Target: T1, human VDR (Homo sapiens, UniProt P11473)
T1 sequence (P11473 1-427): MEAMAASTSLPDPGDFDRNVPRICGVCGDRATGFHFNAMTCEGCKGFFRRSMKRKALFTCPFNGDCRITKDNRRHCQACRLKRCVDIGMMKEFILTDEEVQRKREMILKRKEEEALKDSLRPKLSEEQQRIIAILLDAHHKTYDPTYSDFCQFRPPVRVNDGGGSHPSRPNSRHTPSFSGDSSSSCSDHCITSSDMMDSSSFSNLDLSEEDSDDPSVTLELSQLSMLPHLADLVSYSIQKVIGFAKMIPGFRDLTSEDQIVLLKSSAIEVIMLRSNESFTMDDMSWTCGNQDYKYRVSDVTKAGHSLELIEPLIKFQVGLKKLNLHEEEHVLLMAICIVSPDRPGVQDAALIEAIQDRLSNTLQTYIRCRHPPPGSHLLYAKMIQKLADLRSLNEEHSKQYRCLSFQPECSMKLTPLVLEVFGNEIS
T1 sequence (P19793 1-462 partner): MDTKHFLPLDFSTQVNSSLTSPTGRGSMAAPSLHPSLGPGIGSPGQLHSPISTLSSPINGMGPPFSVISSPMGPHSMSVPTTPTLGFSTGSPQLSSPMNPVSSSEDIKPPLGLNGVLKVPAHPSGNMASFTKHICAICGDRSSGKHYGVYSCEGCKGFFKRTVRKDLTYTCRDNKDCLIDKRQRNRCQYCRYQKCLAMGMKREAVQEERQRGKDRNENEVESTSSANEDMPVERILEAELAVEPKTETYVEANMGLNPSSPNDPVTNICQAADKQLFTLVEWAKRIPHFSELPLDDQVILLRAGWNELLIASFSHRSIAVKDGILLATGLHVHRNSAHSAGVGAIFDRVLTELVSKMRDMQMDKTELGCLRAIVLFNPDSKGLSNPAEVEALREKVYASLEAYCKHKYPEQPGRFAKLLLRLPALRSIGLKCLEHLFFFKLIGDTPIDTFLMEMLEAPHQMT
Assay: Evaluation of VDR transcription activity in human osteoblasts (HOS cells), luciferase reporter
Settings: Activity (EC50, VDR transcription activity), HOS cells transfected with human VDR, human RXRα and DR3 luciferase reporter; 21 hours

First: C=C1/C(=C\C=C2/CCC[C@]3(C)[C@@H]([C@H](C)CN4CCC(C(F)F)CC4)CC[C@@H]23)C[C@@H](O)[C@H](C)[C@@H]1O [Compound C016, (1R,2S,3S,Z)-5-(2-((1R,3aS,7aR,E)-1-((S)-1-(4-(difluoromethyl)piperidin-1-yl)propan-2-yl)-7a-methyloctahydro-4H-inden-4-ylidene)ethylidene)-2-methyl-4-methylenecyclohexane-1,3-diol]
Second: C=C1/C(=C\C=C2/CCC[C@]3(C)[C@@H]([C@@H](C)CN4CCC(C(F)F)CC4)CC[C@@H]23)C[C@@H](O)[C@H](C)[C@@H]1O [Compound C020, (1R,2S,3S,Z)-5-(2-((1R,3aS,7aR,E)-1-((R)-1-(4-(difluoromethyl)piperidin-1-yl)propan-2-yl)-7a-methyloctahydro-4H-inden-4-ylidene)ethylidene)-2-methyl-4-methylenecyclohexane-1,3-diol]
The EC50 of the first is higher: 100 to 1000 nM for the first, 1 to 10 nM for the second. The second is the more potent here.

`C=C1/C(=C\C=C2/CCC[C@]3(C)[C@@H]([C@@H](C)CN4CCC(C(F)F)CC4)CC[C@@H]23)C[C@@H](O)C[C@@H]1O` [Compound C017, (1R,3S,Z)-5-(2-((1R,3aS,7aR,E)-1-((R)-1-(4-(difluoromethyl)piperidin-1-yl)propan-2-yl)-7a-methyloctahydro-4H-inden-4-ylidene)ethylidene)-4-methylenecyclohexane-1,3-diol] and `C[C@@H](CN1CCC(C(F)F)CC1)[C@H]1CC[C@H]2/C(=C/C=C3C[C@@H](O)C[C@H](O)C3)CCC[C@]12C` [Compound C018, (1R,3R)-5-(2-((1R,3aS,7aR,E)-1-((R)-1-(4-(difluoromethyl)piperidin-1-yl)propan-2-yl)-7a-methyloctahydro-4H-inden-4-ylidene)ethylidene)cyclohexane-1,3-diol] fall in the same range of EC50: 10 to 100 nM for the first, 10 to 100 nM for the second.

First: C=C1/C(=C\C=C2/CCC[C@]3(C)[C@@H]([C@H](C)CN4CCC(O)(C(F)F)CC4)CC[C@@H]23)C[C@@H](O)C[C@@H]1O [Compound C021, (1R,3S,Z)-5-(2-((1R,3aS,7aR,E)-1-((S)-1-(4-(difluoromethyl)-4-hydroxypiperidin-1-yl)propan-2-yl)-7a-methyloctahydro-4H-inden-4-ylidene)ethylidene)-4-methylenecyclohexane-1,3-diol]
Second: C=C1/C(=C\C=C2/CCC[C@]3(C)[C@@H]([C@@H](C)CN4CCC(O)(C(F)F)CC4)CC[C@@H]23)C[C@@H](O)C[C@@H]1O [Compound C024, (1R,3S,Z)-5-(2-((1R,3aS,7aR,E)-1-((R)-1-(4-(difluoromethyl)-4-hydroxypiperidin-1-yl)propan-2-yl)-7a-methyloctahydro-4H-inden-4-ylidene)ethylidene)-4-methylenecyclohexane-1,3-diol]
The EC50 of the first is higher: 100 to 1000 nM for the first, 1 to 10 nM for the second. The second is the more potent here.

`C=C1[C@H](O)CC(=C/C=C2\CCC[C@]3(C)[C@@H]([C@H](C)CN4CCC(O)(C(F)F)CC4)CC[C@@H]23)C[C@H]1O` [Compound C022, (1R,3R)-5-(2-((1R,3aS,7aR,E)-1-((S)-1-(4-(difluoromethyl)-4-hydroxypiperidin-1-yl)propan-2-yl)-7a-methyloctahydro-4H-inden-4-ylidene)ethylidene)-2-methylenecyclohexane-1,3-diol] and `C[C@@H](CN1CCC(O)(C(F)F)CC1)[C@H]1CC[C@H]2/C(=C/C=C3C[C@@H](O)C[C@H](O)C3)CCC[C@]12C` [Compound C025, (1R,3R)-5-(2-((1R,3aS,7aR,E)-1-((R)-1-(4-(difluoromethyl)-4-hydroxypiperidin-1-yl)propan-2-yl)-7a-methyloctahydro-4H-inden-4-ylidene)ethylidene)cyclohexane-1,3-diol] fall in the same range of EC50: 10 to 100 nM for the first, 10 to 100 nM for the second.

`C=C1/C(=C\C=C2/CCC[C@]3(C)[C@@H]([C@H](C)CN4CCC(O)(C(F)F)CC4)CC[C@@H]23)C[C@@H](O)[C@H](C)[C@@H]1O` [Compound C023, (1R,2S,3S,Z)-5-(2-((1R,3aS,7aR,E)-1-((S)-1-(4-(difluoromethyl)-4-hydroxypiperidin-1-yl)propan-2-yl)-7a-methyloctahydro-4H-inden-4-ylidene)ethylidene)-2-methyl-4-methylenecyclohexane-1,3-diol] gave an EC50 of 1 to 10 nM.
